Source: patent EP4585588A1, “BENZIMIDAZOLE COMPOUND, AND PREPARATION METHOD THEREFOR AND USE THEREOF” (Suzhou Pharmavan Co., Ltd., priority 2022, dated 2024)

System: myosin heavy chain β (β-MHC)
Settings: 48 h, 10 µM
Description: Primary cardiomyocytes of suckling rats were isolated and cultured and inoculated on a cell culture plate. A drug stock solution was taken and separately added to cell wells according to a certain dilution ratio, and a final concentration was 10 µM. After half hour of drug action, a phenylephrine (PE) stock solution was added, and a final concentration of PE was 20 µM. After 48 hours of PE action, cell samples were collected for real-time quantitative PCR assay or cell area measurement.
Separation and plating of cardiomyocytes of rats: a certain number of SPF suckling rats were taken and placed in a clean bench according to an actual requirement for the number of cells, thoracic cavities were opened by scissors, hearts were separated, and the hearts were cut into tissue fragments with sterilized surgical scissors; Collagenase Type II (manufacturer: Sigma, article No.: C2-28-100MG) was added to a D-HANKS balanced salt buffer to prepare a 5 µg/mL enzyme digestion solution, and the tissue fragments of hearts were continuously digested for three times in a 37 °C constant-temperature water bath box; about 2 mL of the enzyme digestion solution was added for the first time, a supernatant was discarded after digestion, centrifugation and precipitation of cardiomyocytes and tissue fragments, about 4 mL of the enzyme digestion solution was independently added for the second time and the third time to continue digestion, a supernatant was remained each time, DMEM containing 10% FBS with the same volume as the digestion solution in the supernatant was immediately added to neutralize digestive enzymes, the supernatants for the second time and the third time were combined and centrifuged, a supernatant was discarded, an appropriate amount of DMEM containing 10% FBS was added to resuspend the cardiomyocytes, the cardiomyocytes were inoculated in a 100 mm culture plate and subjected to differential adhesion in a constant-temperature cell incubator for 2 h, and a supernatant was taken for cell count.
A 24-well plate precoated with 1% gelatin was taken and plated at 1×10^5 cells/well, 500 µL of a 10% FBS+DMEM medium was contained in each well, and cells were cultured in a 37 °C constant-temperature cell incubator for 24 h. Different compounds were independently prepared into a 100 mM mother liquor with DMSO and gradient diluted with a 10% FBS+DMEM medium to prepare a 10 µM final solution of the compound containing 0.5% DMSO. The medium in the 24-well plate was discarded and replaced with a 500 µL/well medium containing a 10 µM compound, and three replicate wells and a negative control well were set for each compound. After 0.5 hours of drug action, PE (manufacturer: Meilun Biotechnology; article No.: MB1602) with a final concentration of 20 µM was added to each well, and no PE was added to the negative control wells; after 48 hours of PE action, sample detection was performed.
Expression levels of genes related to cardiomyocyte hypertrophy was analyzed via real-time quantitative PCR detection of mRNA level of atrial natriuretic peptide (ANP) and myosin heavy chain β (β-MHC). The steps include extraction of total RNA of cells, reverse transcription synthesis of cDNA and real-time quantitative PCR assay.
Based on real-time quantitative PCR detection of an mRNA level of ANP of cardiomyocytes, a drug with a potential of anti-cardiomyocyte hypertrophy was preliminarily screened and verified with an mRNA level of another hypertrophy gene β-MHC using a statistical method One-way ANOVA and statistical software GraphPad Prism.

Row | SMILES | Mean (real-time quantitative PCR validation results of cardiomyocyte β-MHC)
1 | Cc1nc2cc(-c3cc(C(=O)O)cc(F)c3O)ccc2[nH]1 [Formula I-10, 3-fluoro-4-hydroxy-5-(2-methyl-1H-benzimidazol-5-yl)benzoic acid] | 1.14
2 | COC(=O)c1ccc(O)c(-c2ccc3[nH]c(C)nc3c2)c1 [Formula I-12, methyl 4-hydroxy-3-(2-methyl-1H-benzimidazol-5-yl) benzoate] | 1.19
3 | Cc1nc2cc(-c3cc(CC#N)ccc3O)ccc2[nH]1 [Formula I-18, 2-(4-hydroxy-3-(2-methyl-1H-benzimidazol-5-yl)phenyl)acetonitrile] | 1.18
4 | Cc1nc2cc(-c3cc(CC#N)cc(F)c3O)ccc2[nH]1 [Formula I-19, 2-(3-fluoro-4-hydroxy-5-(2-methyl-1H-benzimidazol-5-yl)phenyl)acetonitrile] | 1.26
5 | CCCc1ccc(O)c(-c2ccc3[nH]c(C)nc3c2)c1 [Formula I-21, 2-(2-methyl-1H-benzimidazol-5-yl)-4-propylphenol] | 1.05
6 | NC(=O)c1ccc(O)c(-c2ccc3[nH]cnc3c2)c1 [Formula I-27, 4-hydroxy-3-(1H-benzimidazol-5-yl)benzamide] | 1.27
7 | NC(=O)c1cc(F)c(O)c(-c2ccc3[nH]cnc3c2)c1 [Formula I-28, 3-fluoro-4-hydroxy-5-(1H-benzimidazol-5-yl)benzamide] | 1.07
8 | CN(C)C(=O)c1cc(F)c(O)c(-c2ccc3[nH]cnc3c2)c1 [Formula I-31, 3-fluoro-4-hydroxy-N,N-dimethyl-5-(1H-benzimidazol-5-yl)benzamide] | 1.29
9 | O=C(O)c1ccc(O)c(-c2ccc3[nH]cnc3c2)c1 [Formula I-33, 4-hydroxy-3-(1H-benzimidazol-5-yl)benzoic acid] | 1.22
10 | COC(=O)c1cc(C#N)c(O)c(-c2ccc3[nH]cnc3c2)c1 [Formula I-38, methyl 3-cyano-4-hydroxy-5-(1H-benzimidazol-5-yl) benzoate] | 1.26
11 | C=CCc1cc(F)c(O)c(-c2ccc3[nH]cnc3c2)c1 [Formula I-40, 4-allyl-2-(1H-benzimidazol-5-yl)-6-fluorophenol] | 1.28
12 | C=CCc1cc(C#N)c(O)c(-c2ccc3[nH]cnc3c2)c1 [Formula I-41, 5-allyl-3-(1H-benzimidazol-5-yl)-2-hydroxybenzonitrile] | 1.37
13 | CCCc1ccc(O)c(-c2ccc3[nH]cnc3c2)c1 [Formula I-45, 2-(1H-benzimidazol-5-yl)-4-propylphenol] | 1.39
14 | Cc1nc2cc(-c3cc(C(=O)N(C)C)cc(C#N)c3C(C)(C)O)ccc2[nH]1 [Formula II-9, 3-cyano-4-(2-hydroxypropan-2-yl)-N,N-dimethyl-5-(2-methyl-1H-benzimidazol-5-yl)benzamide] | 1.18
15 | Cc1nc2cc(-c3cc(C(=O)O)ccc3C(C)(C)O)ccc2[nH]1 [Formula II-10, 4-(2-hydroxypropan-2-yl)-3-(2-methyl-1H-benzimidazol-5-yl)benzoic acid] | 1.27
16 | C=CCc1cc(F)c(C(C)(C)O)c(-c2ccc3[nH]c(C)nc3c2)c1 [Formula II-17, 2-(4-allyl-2-fluoro-6-(2-methyl-1H-benzimidazol-5-yl)phenyl)propane-2-ol] | 1.13
17 | C=CCc1cc(C#N)c(C(C)(C)O)c(-c2ccc3[nH]c(C)nc3c2)c1 [Formula II-18, 5-allyl-2-(2-hydroxypropan-2-yl)-3-(2-methyl-1H-benzimidazol-5-yl)benzonitrile] | 1.19
18 | CC(C)(O)c1ccc(F)cc1-c1ccc2[nH]cnc2c1 [Formula II-25, 2-(4-fluoro-2-(1H-benzimidazol-5-yl)phenyl)propane-2-ol] | 1.52
19 | CC(C)(O)c1c(F)cc(F)cc1-c1ccc2[nH]cnc2c1 [Formula II-26, 2-(2,4-difluoro-6-(1H-benzimidazol-5-yl)phenyl)propane-2-ol] | 1.42
20 | CC(C)(O)c1c(C#N)cc(C(N)=O)cc1-c1ccc2[nH]cnc2c1 [Formula II-30, 3-cyano-4-(2-hydroxypropan-2-yl)-5-(1H-benzimidazol-5-yl)benzamide] | 1.21
21 | CC(C)(O)c1c(C#N)cc(C(=O)O)cc1-c1ccc2[nH]cnc2c1 [Formula II-36, 3-cyano-4-(2-hydroxypropan-2-yl)-5-(1H-benzimidazol-5-yl)benzoic acid] | 1.41

Row | SMILES | Mean (real-time quantitative PCR validation results of cardiomyocyte β-MHC)
22 | C=CCc1cc(C#N)c(C(C)(C)O)c(-c2ccc3[nH]cnc3c2)c1 [Formula II-42, 5-allyl-2-(2-hydroxypropan-2-yl)-3-(1H-benzimidazol-5-yl)benzonitrile] | 1.48
23 | CC(C)(O)c1ccc(CC#N)cc1-c1ccc2[nH]cnc2c1 [Formula II-43, 2-(4-(2-hydroxypropan-2-yl)-3-(1H-benzimidazol-5-yl)phenyl)acetonitrile] | 1.21
24 | Cc1nc2cc(-c3cc(F)ccc3C(C)O)ccc2[nH]1 (stereo not drawn) [Formula II-49, 1-(4-fluoro-2-(2-methyl-1H-benzimidazol-5-yl)phenyl)ethane-1-ol] | 1.36
25 | Cc1nc2cc(-c3cc(C(N)=O)cc(C#N)c3C(C)O)ccc2[nH]1 (stereo not drawn) [Formula II-54, 3-cyano-4-(1-hydroxyethyl)-5-(2-methyl-1H-benzimidazol-5-yl)benzamide] | 1.28
26 | Cc1nc2cc(-c3cc(C(=O)N(C)C)cc(C#N)c3C(C)O)ccc2[nH]1 (stereo not drawn) [Formula II-57, 3-cyano-4-(1-hydroxyethyl)-N,N-dimethyl-5-(2-methyl-1H-benzimidazol-5-yl)benzamide] | 1.26
27 | COC(=O)c1cc(C#N)c(C(C)O)c(-c2ccc3[nH]c(C)nc3c2)c1 (stereo not drawn) [Formula II-63, methyl 3-cyano-4-(1-hydroxyethyl)-5-(2-methyl-1H-benzimidazol-5-yl) benzoate] | 1.36
28 | C=CCc1ccc(C(C)O)c(-c2ccc3[nH]c(C)nc3c2)c1 (stereo not drawn) [Formula II-64, 1-(4-allyl-2-(2-methyl-1H-benzimidazol-5-yl)phenyl)ethane-1-ol] | 1.22
29 | CC(O)c1c(C#N)cc(C(N)=O)cc1-c1ccc2[nH]cnc2c1 (stereo not drawn) [Formula II-78, 3-cyano-4-(1-hydroxyethyl)-5-(1H-benzimidazol-5-yl)benzamide] | 1.35
30 | CC(O)c1ccc(C(=O)O)cc1-c1ccc2[nH]cnc2c1 (stereo not drawn) [Formula II-82, 4-(1-hydroxyethyl)-3-(1H-benzimidazol-5-yl)benzoic acid] | 1.15
31 | C=CCc1cc(C#N)c(C(C)O)c(-c2ccc3[nH]cnc3c2)c1 (stereo not drawn) [Formula II-90, 5-allyl-2-(1-hydroxyethyl)-3-(1H-benzimidazol-5-yl)benzonitrile] | 1.27
32 | CC(O)c1ccc(CC#N)cc1-c1ccc2[nH]cnc2c1 (stereo not drawn) [Formula II-91, 2-(4-(1-hydroxyethyl)-3-(1H-benzimidazol-5-yl)phenyl)acetonitrile] | 1.57
33 | CCCc1cc(F)c(C(C)O)c(-c2ccc3[nH]cnc3c2)c1 (stereo not drawn) [Formula II-95, 1-(2-fluoro-6-(1H-benzimidazol-5-yl)-4-propylphenyl)ethane-1-ol] | 1.24
34 | Cc1nc2cc(-c3cc(C(N)=O)cc(C#N)c3CO)ccc2[nH]1 [Formula II-102, 3-cyano-4-(hydroxymethyl)-5-(2-methyl-1H-benzimidazol-5-yl)benzamide] | 1.28
35 | Cc1nc2cc(-c3cc(C(=O)N(C)C)cc(F)c3CO)ccc2[nH]1 [Formula II-104, 3-fluoro-4-(hydroxymethyl)-N,N-dimethyl-5-(2-methyl-1H-benzimidazol-5-yl)benzamide] | 1.25
36 | COC(=O)c1cc(F)c(CO)c(-c2ccc3[nH]c(C)nc3c2)c1 [Formula II-110, methyl 3-fluoro-4-(hydroxymethyl)-5-(2-methyl-1H-benzimidazol-5-yl) benzoate] | 1.34
37 | Cc1nc2cc(-c3cc(CC#N)cc(F)c3CO)ccc2[nH]1 [Formula II-116, 2-(3-fluoro-4-(hydroxymethyl)-5-(2-methyl-1H-benzimidazol-5-yl)phenyl)acetonitrile] | 1.58
38 | CCCc1cc(C#N)c(CO)c(-c2ccc3[nH]c(C)nc3c2)c1 [Formula II-120, 2-(hydroxymethyl)-3-(2-methyl-1H-benzimidazol-5-yl)-5-propylbenzonitrile] | 1.45
39 | CN(C)C(=O)c1cc(F)c(CO)c(-c2ccc3[nH]cnc3c2)c1 [Formula II-128, 3-fluoro-4-(hydroxymethyl)-N,N-dimethyl-5-(1H-benzimidazol-5-yl)benzamide] | 1.27
40 | CN(C)C(=O)c1cc(C#N)c(CO)c(-c2ccc3[nH]cnc3c2)c1 [Formula II-129, 3-cyano-4-(hydroxymethyl)-N,N-dimethyl-5-(1H-benzimidazol-5-yl)benzamide] | 1.34
41 | COC(=O)c1ccc(CO)c(-c2ccc3[nH]cnc3c2)c1 [Formula II-133, methyl 4-(hydroxymethyl)-3-(1H-benzimidazol-5-yl) benzoate] | 1.46
42 | CCCc1ccc(CO)c(-c2ccc3[nH]cnc3c2)c1 [Formula II-142, (2-(1H-benzimidazol-5-yl)-4-propylphenyl)methanol] | 1.40
